Assay results as given in patent publication US10046007B2, “Compositions and methods for treatment of short telomere disorders” (PRESCIENT PHARMA LLC, priority 2015, dated 2018).
“Also recorded” adds a separate entry of the source. Like-named read-outs stand apart in the source and are kept apart here.

System: bleomycin-induced pulmonary fibrosis
Procedure: Bleomycin solution: bleomycin (commercially available from SigmaAldrich) in PBS was used for intra-tracheal bleomycin administration. (0.04 U of bleomycin in 50 μl in PBS/mouse/per inhalation).
13 female mice (commercially available from Charles River Laboratories, BALB/C) were randomly divided into 4 groups, as follows:
Each mouse was anesthetized with 87.5 mg ketamine/kg and 12.5 mg xyline/kg cocktail 0.1 ml/20 g body weight IM. For both lithium and bleomycin intra-tracheal administration, tracheal intubation was performed using with a 23 gauge IV catheter through the mouth, followed by insertion of PE-10 tubing into the trachea. After placement of the PE-10 tubing inside the trachea, the 23 gauge iv catheter was quickly removed. Lithium or bleomycin was instilled through the PE-10 tubing. The instillation volume was 50 μl each administration for each mouse. The procedure time was around 15 minutes per mouse.
For Group 1 (n=1), no treatment was administered and the mouse was sacrificed as control.
The mice was sacrificed at 21 days after first lithium administration. The mice were sacrificed using pentobarbital 200 mg/kg ip. After the mice were sacrificed, the lungs were quickly harvested and perfused with 10% formalin buffer through the trachea. The lung tissue was then fixed in 10% formalin buffer for 3 days.
For Group 3 (n=6), the mice were pre-treated with intra-tracheal lithium instillation (0.15 mM in 50 μl saline) every other day for 3 administrations. 7 days after the final lithium pre-treatment, intra-tracheal bleomycin was instilled (0.04 U in 50 μl saline). The mice in this group were then sacrificed 14 days after bleomycin administration. The mice were sacrificed using pentobarbital 200 mg/kg ip. After the mice were sacrificed, the lungs were quickly harvested and perfused with 10% formalin buffer through the trachea. The lung tissue was then fixed in 10% formalin buffer for 3 days.
For Group 4 (n=5), only intra-tracheal bleomycin was instilled (0.04 U in 50 μl saline). The mice in this group were then sacrificed 14 days after bleomycin administration. The mice were sacrificed using pentobarbital 200 mg/kg ip. After the mice were sacrificed, the lungs were quickly harvested and perfused with 10% formalin buffer through the trachea. The lung tissue was then fixed in 10% formalin buffer for 3 days.
Following the 3 day period, macroscopical examination of the lung tissue was performed by dissection. The lung tissue were cut into 1-2 mm slices and visually inspected for areas of grey-white discoloration. […] The lung slices were then embedded in paraffin and sectioned into 5-μm-thick sections. Hematoxylin and eosin (H&E) and trichrome staining (abcam; ab150686) were performed for tissue samples from each group. The stained slides were then examined under light microscope (Olympus BX51) and photographed (Olympus DP-73 digital camera).
An Ashcroft score was then calculated for each of the group (T Ashcroft at al., Simple method of estimating severity of pulmonary fibrosis on a numerical scale. J Clin Pathol 1988; 41:467-470). The Ashcroft score provides a simple method of estimating severity of pulmonary fibrosis on a numerical scale.

Which results are given for `O=C([O-])[O-].[Li+].[Li+]` [lithium carbonate]?
signs of lung tissue damage, macroscopic and microscopic (H&E, trichrome) (Group 2: lithium inhalation only): did not show any macroscopically or microscopically sign of lung tissue damage; Ashcroft score (Group 2: lithium inhalation only, 0.15 mM lithium carbonate 50 μl intratracheal every other day for 3 administrations, sacrificed at 21 days): 0; Ashcroft score (Group 3: intra-tracheal lithium 0.15 mM in 50 μl every other day for 3 administrations, bleomycin 0.04 U 7 days after final lithium, sacrificed 14 days after bleomycin): 0; signs of lung tissue damage, macroscopic and microscopic (H&E, trichrome) (Group 3: lithium pre-treatment followed by bleomycin): did not reveal any signs macroscopically or microscopically of lung tissue damage; pulmonary fibrosis development induced by bleomycin (lithium pre-treatment by inhalation, mice): completely abolishes

For bleomycin, which “macroscopic examination of lung sections (grey-white discoloration)” value (Group 4: bleomycin alone) is on record?
Its value is “only areas of such discoloration were found in the lung tissue of Group 4 mice; also recorded: multiple areas of grey-white discoloration mostly in peri-pleural areas”.

And the “microscopic examination of discoloured lung areas” value (Group 4: bleomycin alone)?
The value was “profound fibrotic changes”.

And the Ashcroft score (Group 4: intra-tracheal bleomycin alone 0.04 U in 50 μl, sacrificed 14 days after bleomycin)?
The Ashcroft score was 4.03.
